Assay results reported in patent US4185119A, “Antiallergic methods” (priority 1977, dated 1980).

Tests used:
[1] = Antiallergic action (summary of tests); format: in vivo; conditions: summary statement
Source text: Test: Antiallergic Action
(2) Inhibition test of P.C.A. (Passive Cutaneous Anaphylaxis) reaction
(3) Inhibition test of anaphylactic asthma in guinea-pigs

[2] = test system: P.C.A. reaction in Donryu strain rats; test: Inhibition of P.C.A. reaction in Donryu strain rats, rat reaginic antiserum against egg albumin; format: in vivo; conditions: Donryu rat (Table 2-II)
Method: (a) Rat reaginic antiserum against egg albumin
A solution of egg albumin (2 mg) in B. pertussis-diphtheria-tetanus mixed vaccine (1 ml.) (made by Takeda Chemical Industries Ltd.) was mixed with an equal volume of incomplete adjuvant (made by Difco Laboratories) to give an emulsion. The emulsion was given subcutaneously in a single dose of 1 ml. divided equally (0.25 ml.) to the four foot pads of male S.D. (Sprague-Dawley) strain rats aged 8 weeks, each weighing about 300 g.
Five days after the administration, a solution of egg albumin (0.5 mg.) in B. pertussis-diphtheria-tetanus mixed vaccine (0.5 ml.) was further given intramuscularly in a single dose of 0.5 ml. divided equally (0.25 ml.) to 2 places of thigh of the same rats.
Three days after the second administration, blood samples were collected from femoral artery of the rats and allowed to stand at ambient temperature for 5 hours. The separated supernatant was centrifuged at 4° C. (10,000 r.p.m.× 1 hour). The antisera thus obtained were stored at -80° C. prior to use.
(§1) (b) Inhibitory effect on P.C.A. reaction in Donryu strain rat
(§2) The following tests were carried out in substantially the same manner as described in the above item (2)-(a).
(§3) (i) Test compound: N:methyllaurotetanine hydrochloride
(§4) Test animal: Male Donryu strain rats aged 8 weeks, weighing about 130 g.
(§5) Challenge: A normal saline (0.3 ml.) containing egg albumin (4.5 mg.) and Evans blue (1.5 mg.).
(§6) (ii) Test commpound: glaucine or boldine
(§7) Test animal: Male Donryu strain rats aged 8 weeks, weighing 140-150 g.
(§8) Challenge: the same as the above item (b)-(i).

[3] = test system: P.C.A. reaction in I.C.R. strain mice; test: Inhibition test of P.C.A. reaction in I.C.R. strain mice, rat hyperimmune antiserum against egg albumin; format: in vivo; conditions: intraperitoneal, I.C.R. mouse (Table 3-II)
Method: (c) Inhibition test of P.C.A. reaction in I.C.R. (Institute of Cancer Research) strain mice
(i) Test compound: N-methyllaurotetanine hydrochloride
Fifteen male I.C.R. strain mice aged 7 weeks, weighing about 35 g were divided equally into 3 groups. Each of the groups was composed of 5 mice, (in case of intraperioneal administration of the test compound to the mouse, each of the groups was composed of […]).
Ten-hold diluted solution (0.05 ml.) of the rat hyperimmune antiserum against egg albumin was given intracutaneously to the depilated back of each mouse of Group I and Group II, respectively. On the other hand, a rat normal serum (0.05 ml.) was given intracutaneously to the depilated back of each mouse of Group III. Three hours after the administration, a normal saline (0.1 ml.) containing egg albumin (1.5 mg.) and Evans blue (0.5 mg.) was given intravenously to each mouse of Groups I-III in order to bring about P.C.A., respectively.
Beforehand, 3 hours and 1 hours before the admnistration to bring about P.C.A., a normal saline (0.3 ml.) containing the prescribed amount of N-methyllaurotetanine hydrochloride and carboxymethylcellulose (0.5%) was given orally or intraperitoneally to each mouse of Group I, and a normal saline (0.3 ml.) containing only carboxymethylcellulose (0.5%) was given orally or intraperitoneally to each mouse of Group II.
The procedure followed by the above, was carried out in substantially the same manner as described in the above item (2)-(a). […]

[4] = test system: P.C.A. reaction in Donryu strain rats; test: Inhibition of P.C.A. reaction in Donryu strain rats, rat hyperimmune antiserum against egg albumin; format: in vivo; conditions: Donryu rat (Table 2-II)
Method: (b) Rat hyperimmune antiserum against egg albumin
A solution of egg albumin (20 mg.) in normal saline (1 ml.) was mixed with complete adjuvant (1 ml.) (made by Difco Laboratories) to given an emulsion. The emulsion was subcutaneously given in a single dose of 1 ml. divided equally (0.25 ml.) to the four pads of male S.D. strain rats aged 6 weeks, each weighing about 200 g. (The first immunization).
One week after the administration, an emulsion which was prepared by mixing a solution of egg albumin (10 mg.) in normal saline (1 ml.) with complete adjuvant (1 ml.) was further given subcutaneously (at 3 places) and intramuscularly (at 1 place) in a single dose of 1 ml. divided equally (0.25 ml.) to thigh of the same rats. (The second immunization).
Three weeks after the second administration, a solution of egg albumin (1 mg.) in normal saline (1 ml.) was further given intracutaneously in a single dose of 0.3 ml. divided equally (0.1 ml.) to 3 places of the same rats. (The third immunization).
One week after the third administration, blood samples were collected from rats and treated in substantially the same manner as described in the above item (a). The antisera thus obtained were stored at -80° C. prior to use.
Further, an inhibition test on P.C.A. reaction using the rat hyperimmuneantiserum against egg albumin was carried out in substantially the same manner as described in the above, excepting that the intravenous administration to bring about P.C.A. was carried out at 5.5 hours after the administration of the serum and antiserum. And inhibitory effect on the P.C.A. reaction was also calculated in substantially the same manner as described in the above.
as §1, §2, §3, §4, §5, §6, §7, §8

[5] = Apomorphine-like side effect (summary of side effect tests); format: in vivo; conditions: summary statement
Source text: (i) Rotational behavior inducing action in rats unilaterally lesioned in substantia nigra,
(ii) Gnawing behavior including action in rats, and
(iii) Vomiting-inducing action in dogs

[6] = cited from earlier work
Acute toxicity in mice = conditions: mouse, in vivo, ip; intraperitoneal, male I.C.R. mice, survivals at one week
Method: Test: Acute Toxicity in Mice
A normal saline containing each of the test compound mentioned below and 0.5% carboxymethylcellulose was given intraperitoneally to male I.C.R. (Institute of Cancer Research) strain mice aged 5 weeks, weighing 33-35 g. LD50 values were calculated from the survivals of mice at one week after the administration of the test compound.

| Compound | antiallergic effects [1] | Inhibitory effect on P.C.A. reaction ([2]; intraperitoneal, 66 mg/kg) | Inhibitory effect on P.C.A. reaction ([3]; 30 mg/kg) | Inhibitory effect on P.C.A. reaction ([4]; intraperitoneal, 66 mg/kg) | apomorphine-like side effect [5] | diuretic activity ([6]; THE MERCK INDEX EIGHTH EDITION, Page 159 (1968)) | LD50 at 168 h (Acute toxicity in mice) | curariform activity ([6]; Japanese Patent Publication No. 24092/1961) | Inhibitory effect on P.C.A. reaction ([2]; intraperitoneal, 20 mg/kg) | Inhibitory effect on P.C.A. reaction ([2]; intraperitoneal, 60 mg/kg) | Inhibitory effect on P.C.A. reaction ([2]; oral, 50 mg/kg) | Inhibitory effect on P.C.A. reaction ([2]; oral, 100 mg/kg) | Inhibitory effect on P.C.A. reaction ([2]; oral, 200 mg/kg) | Inhibitory effect on P.C.A. reaction ([3]; 10 mg/kg) | Inhibitory effect on P.C.A. reaction ([4]; intraperitoneal, 20 mg/kg) | Inhibitory effect on P.C.A. reaction ([4]; intraperitoneal, 60 mg/kg) | Inhibitory effect on P.C.A. reaction ([4]; oral, 50 mg/kg) | Inhibitory effect on P.C.A. reaction ([4]; oral, 100 mg/kg) | Inhibitory effect on P.C.A. reaction ([4]; oral, 200 mg/kg) | adrenolytic action and antitussive properties ([6]; Chemical Abstracts Vol. 68, 94521Z (1968)) |
| --- | --- | --- | --- | --- | --- | --- | --- | --- | --- | --- | --- | --- | --- | --- | --- | --- | --- | --- | --- | --- |
| COc1cc2c(cc1O)C[C@H]1c3c(cc(O)c(OC)c3-2)CCN1C [Boldine, boldine] | much superior antiallergic effects | 40% | 20% | 30% | without apomorphine-like side effect | diuretic activity | 145 mg/kg | – | – | – | – | – | – | – | – | – | – | – | – | – |
| COc1cc2c(cc1O)CC1c3c(cc(OC)c(OC)c3-2)CCN1C (centres unmarked) [N-methyllaurotetanine] | much superior antiallergic effects | – | – | – | without apomorphine-like side effect | – | – | curariform activity | – | – | – | – | – | – | – | – | – | – | – | – |
| COc1cc2c(cc1OC)-c1c(OC)c(OC)cc3c1[C@H](C2)N(C)CC3 [Glaucine, glaucine] | much superior antiallergic effects | – | 60% | – | without apomorphine-like side effect | – | 212 mg/kg | – | 60% | 95% | 70% | 80% | 95% | 50% | 50% | 85% | 60% | 80% | 90% | adrenolytic action and antitussive properties |
